Reference: patent US8178668B2, “2-aminopyridine kinase inhibitors” (OSI Pharmaceuticals, LLC, priority 2008, dated 2012)
Where a name gives a salt, the structure may show the parent alone.

Legend:
MET (human) = MET (human) (Homo sapiens, UniProt P08581); experiment: MET kinase AlphaScreen assay (Km of ATP); format: biochemical; conditions: ATP at Km; at least duplicate experiments
Procedure: (§1) Person skilled in the art will appreciate that a variety of assay formats may be used to determine the activity of the compounds of this invention. For example, AlphaScreen (Amplified Luminescent Proximity Homogeneous Assay) technology was used with the kinases described below. Assay ATP concentrations for individual kinases are included in the text.
MET (human)—Km of ATP: MET assay is performed in a 384 well assay containing 200 ng/μL biotinylated poly(Glu,Tyr), 0.334 mM vanadate, desired concentration of ATP optimized for the enzyme in assay buffer (50 mM HEPES (pH=7.4), 5 mM MgCl2, 5 mM MnCl2, and 1% glycerol). Desired compound is added in a final concentration of 1% DMSO with control being vehicle of DMSO alone. MET is diluted to the optimized concentration (optimized on a lot-by-lot basis) in an enzyme diluent buffer (50 mM Tris pH=7.4, 1% glycerol, 0.03% Brij35, 0.24 mM EGTA, 1 mM DTT, and 0.003% BSA). Enzyme is added to initiate the reaction and incubated for 60 min at RT. In subdued light, appropriate amount of PT66 donor and acceptor beads (diluted 1:260 from manufacturer's provision in a 25 mM Tris HCl (pH=7.5), 400 mM NaCl, 100 mM EDTA, 0.3% BSA buffer) are added to the wells. The plates, incubated for 1 h, are read on an AlphaQuest plate reader

RON (human) = RON (human) (Homo sapiens, UniProt Q04912); experiment: RON kinase AlphaScreen assay (Km of ATP); format: biochemical; conditions: ATP at Km; at least duplicate experiments
Procedure: as §1
RON (human)—Km of ATP: RON assay is performed in a 384 well assay containing 200 ng/μL biotinylated poly(Glu,Tyr), 0.334 mM vanadate, desired concentration of ATP optimized for the enzyme in assay buffer (50 mM HEPES (pH=7.4), 12.5 mM MgCl2 and 1% glycerol). Desired compound is added in a final concentration of 1% DMSO with control being vehicle of DMSO alone. RON is diluted to the optimized (on a lot-by-lot basis) concentration in an enzyme diluent buffer (50 mM HEPES pH=7.4, 12.5 mM MgCl2 and 1% glycerol, 0.03% Brij35, 0.3 mM EGTA, lmM DTT, and 0.003% BSA). Enzyme is added to initiate the reaction and incubated for 30 min at RT. In subdued light, appropriate amount of PT66 donor and acceptor beads (diluted 1:260 from manufacturer's provision in a 25 mM Tris HCl (pH=7.5), 200 mM NaCl, 100 mM EDTA, 0.3% BSA buffer) are added to the wells. The plates, incubated for 1 h, are read on an AlphaQuest plate reader.

Sequence of RON (human) (Q04912 25-1400): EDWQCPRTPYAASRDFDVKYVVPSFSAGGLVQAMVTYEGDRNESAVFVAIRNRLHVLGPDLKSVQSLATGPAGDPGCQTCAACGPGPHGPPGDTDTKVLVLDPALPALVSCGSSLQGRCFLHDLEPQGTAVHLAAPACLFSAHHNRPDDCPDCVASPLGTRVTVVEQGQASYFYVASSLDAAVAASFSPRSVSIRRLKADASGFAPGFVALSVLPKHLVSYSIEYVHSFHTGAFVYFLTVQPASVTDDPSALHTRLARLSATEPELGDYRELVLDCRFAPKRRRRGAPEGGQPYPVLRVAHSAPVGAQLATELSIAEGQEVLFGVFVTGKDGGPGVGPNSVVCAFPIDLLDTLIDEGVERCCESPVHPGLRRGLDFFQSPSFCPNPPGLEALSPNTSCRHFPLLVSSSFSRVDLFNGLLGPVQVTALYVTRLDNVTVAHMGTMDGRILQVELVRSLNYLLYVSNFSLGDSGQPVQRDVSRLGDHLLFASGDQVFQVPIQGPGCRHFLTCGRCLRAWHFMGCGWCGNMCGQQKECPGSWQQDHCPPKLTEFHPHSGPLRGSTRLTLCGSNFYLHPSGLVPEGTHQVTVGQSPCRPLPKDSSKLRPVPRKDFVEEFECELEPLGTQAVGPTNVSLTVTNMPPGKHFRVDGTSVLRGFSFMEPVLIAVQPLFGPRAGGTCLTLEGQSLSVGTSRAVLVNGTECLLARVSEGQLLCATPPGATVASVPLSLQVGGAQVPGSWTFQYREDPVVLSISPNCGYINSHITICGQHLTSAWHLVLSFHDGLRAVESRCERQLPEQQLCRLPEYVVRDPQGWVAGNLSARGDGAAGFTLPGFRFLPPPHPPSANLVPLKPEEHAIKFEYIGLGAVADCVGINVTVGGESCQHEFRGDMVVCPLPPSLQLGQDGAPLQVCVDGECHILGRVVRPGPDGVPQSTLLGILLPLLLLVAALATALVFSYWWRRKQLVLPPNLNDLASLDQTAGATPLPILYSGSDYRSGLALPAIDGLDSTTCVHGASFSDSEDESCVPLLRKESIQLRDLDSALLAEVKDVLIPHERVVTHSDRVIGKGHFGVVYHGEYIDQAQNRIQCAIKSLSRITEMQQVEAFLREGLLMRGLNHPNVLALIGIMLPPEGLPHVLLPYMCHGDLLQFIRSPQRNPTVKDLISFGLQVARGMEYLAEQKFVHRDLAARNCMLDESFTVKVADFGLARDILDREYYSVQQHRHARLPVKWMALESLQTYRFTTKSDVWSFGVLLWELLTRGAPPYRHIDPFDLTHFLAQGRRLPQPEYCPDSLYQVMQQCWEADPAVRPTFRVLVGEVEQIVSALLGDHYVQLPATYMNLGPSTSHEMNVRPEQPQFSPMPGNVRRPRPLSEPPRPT
Sequence of MET (human) (P08581 25-1390): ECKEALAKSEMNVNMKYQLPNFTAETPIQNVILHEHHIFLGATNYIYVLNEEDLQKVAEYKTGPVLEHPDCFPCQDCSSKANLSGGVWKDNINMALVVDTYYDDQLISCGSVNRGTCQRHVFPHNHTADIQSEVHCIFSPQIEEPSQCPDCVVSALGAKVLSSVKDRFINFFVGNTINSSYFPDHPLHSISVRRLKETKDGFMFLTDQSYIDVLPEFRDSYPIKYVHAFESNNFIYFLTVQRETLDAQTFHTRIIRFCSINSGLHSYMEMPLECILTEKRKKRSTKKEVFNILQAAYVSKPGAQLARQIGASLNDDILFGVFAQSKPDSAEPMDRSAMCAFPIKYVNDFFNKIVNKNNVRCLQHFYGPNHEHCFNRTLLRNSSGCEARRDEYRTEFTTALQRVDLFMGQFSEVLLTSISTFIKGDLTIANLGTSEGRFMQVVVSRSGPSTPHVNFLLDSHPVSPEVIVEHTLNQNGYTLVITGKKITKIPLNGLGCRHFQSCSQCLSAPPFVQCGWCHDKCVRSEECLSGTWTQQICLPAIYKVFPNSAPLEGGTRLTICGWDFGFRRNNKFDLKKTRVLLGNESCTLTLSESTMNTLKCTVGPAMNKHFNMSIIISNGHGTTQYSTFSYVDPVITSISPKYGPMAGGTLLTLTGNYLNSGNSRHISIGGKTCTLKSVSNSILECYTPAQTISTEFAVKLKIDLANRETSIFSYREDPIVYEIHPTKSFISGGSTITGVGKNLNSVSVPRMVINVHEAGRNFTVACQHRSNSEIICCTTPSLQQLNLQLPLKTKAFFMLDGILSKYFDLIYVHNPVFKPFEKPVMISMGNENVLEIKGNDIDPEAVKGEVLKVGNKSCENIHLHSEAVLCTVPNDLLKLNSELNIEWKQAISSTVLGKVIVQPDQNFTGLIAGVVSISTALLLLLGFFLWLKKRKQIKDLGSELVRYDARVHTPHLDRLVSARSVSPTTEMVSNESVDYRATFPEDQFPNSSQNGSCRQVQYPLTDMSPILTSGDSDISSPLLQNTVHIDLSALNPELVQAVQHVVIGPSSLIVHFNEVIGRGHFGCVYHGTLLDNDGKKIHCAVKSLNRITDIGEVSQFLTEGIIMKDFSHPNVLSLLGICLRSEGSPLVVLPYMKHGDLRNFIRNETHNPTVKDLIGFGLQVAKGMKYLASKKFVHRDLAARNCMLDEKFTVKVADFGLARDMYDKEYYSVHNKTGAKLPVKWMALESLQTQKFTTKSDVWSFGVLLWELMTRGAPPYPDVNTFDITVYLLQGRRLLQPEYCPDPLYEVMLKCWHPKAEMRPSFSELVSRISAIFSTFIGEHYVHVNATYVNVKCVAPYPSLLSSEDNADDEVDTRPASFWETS

## Nc1ncc(-c2cnn(C3CCNCC3)c2)cc1-c1cc2c(-c3cccnc3)ccc(F)c2cn1 [Example 54, 3-(8-Fluoro-5-pyridin-3-ylisoquinolin-3-yl)-5-(1-piperidin-4-yl-1H-pyrazol-4-yl)-pyridin-2-ylamine trihydrochloride pyridin-2-ylamine trihydrochloride]
MET (human)
  IC50: 100 to 1000 nM
RON (human)
  IC50: 1000 to 20000 nM

## Nc1ncc(-c2cnn(C3CCNCC3)c2)cc1-c1cc2c(-c3nccs3)ccc(F)c2cn1 [Example 55, 3-(8-Fluoro-5-thiazol-2-ylisoquinolin-3-yl)-5-(1-piperidin-4-yl-1H-pyrazol-4-yl)-pyridin-2-ylamine trihydrochloride]
MET (human)
  IC50: 100 to 1000 nM
RON (human)
  IC50: 1000 to 20000 nM

## Nc1ncc(-c2cnn(C3CCNCC3)c2)cc1-c1cc2c(-c3cncs3)ccc(F)c2cn1 [Example 56, 3-(8-Fluoro-5-thiazol-5-ylisoquinolin-3-yl)-5-(1-piperidin-4-yl-1H-pyrazol-4-yl)-pyridin-2-ylamine trihydrochloride]
MET (human)
  IC50: 100 to 1000 nM
RON (human)
  IC50: 100 to 1000 nM

## Nc1ncc(-c2cnn(C3CCN(C=O)CC3)c2)cc1-c1cc2c(Cl)ccc(F)c2cn1 [Example 57, 4-4-[6-Amino-5-(5-chloro-8-fluoroisoquinolin-3-yl)-pyridin-3-yl]-pyrazol-1-ylpiperidine-1-carbaldehyde]
MET (human)
  IC50: 100 to 1000 nM
RON (human)
  IC50: 1000 to 20000 nM

## CN1CCC(n2cc(-c3cnc(N)c(-c4cc5c(Cl)ccc(F)c5cn4)c3)cn2)CC1 [Example 58, 3-(5-Chloro-8-fluoroisoquinolin-3-yl)-5-[1-(1-methylpiperidin-4-yl)-1H-pyrazol-4-yl]-pyridin-2-ylamine]
MET (human)
  IC50: 100 to 1000 nM
RON (human)
  IC50: 100 to 1000 nM

## CN1CCN(c2ncc(-c3cnc(N)c(-c4cc5c(Cl)ccc(F)c5cn4)c3)s2)CC1 [Example 60, 3-(5-Chloro-8-fluoroisoquinolin-3-yl)-5-[2-(4-methylpiperazin-1-yl)-thiazol-5-yl]-pyridin-2-ylamine trihydrochloride]
MET (human)
  IC50: 1000 to 20000 nM
RON (human)
  IC50: 1000 to 20000 nM

## Nc1ncc(-c2cnc(N3CCOCC3)s2)cc1-c1cc2c(Cl)ccc(F)c2cn1 [Example 61, 3-(5-Chloro-8-fluoroisoquinolin-3-yl)-5-(2-morpholin-4-ylthiazol-5-yl)-pyridin-2-ylamine]
MET (human)
  IC50: > 20000 nM
RON (human)
  IC50: > 20000 nM

## Nc1ncc(-c2cnn([C@@H]3CCNC3)c2)cc1-c1cc2c(Cl)ccc(F)c2cn1 [Example 62, 3-(5-Chloro-8-fluoroisoquinolin-3-yl)-5-((R)-1-pyrrolidin-3-yl-1H-pyrazol-4-yl)-pyridin-2-ylamine trihydrochloride]
MET (human)
  IC50: 100 to 1000 nM
RON (human)
  IC50: 100 to 1000 nM

## Nc1ncc(-c2cnn([C@H]3CCNC3)c2)cc1-c1cc2c(Cl)ccc(F)c2cn1 [Example 63, 3-(5-Chloro-8-fluoroisoquinolin-3-yl)-5-((S)-1-pyrrolidin-3-yl-1H-pyrazol-4-yl)-pyridin-2-ylamine trihydrochloride]
MET (human)
  IC50: 100 to 1000 nM
RON (human)
  IC50: 100 to 1000 nM

## CN1C2CCC1CC(n1cc(-c3cnc(N)c(-c4cc5c(Cl)ccc(F)c5cn4)c3)cn1)C2 (stereo not drawn) [Example 64, 3-(5-Chloro-8-fluoroisoquinolin-3-yl)-5-[1-(8-methyl-8-azabicyclo [3.2.1]-oct-3-yl)-1H-pyrazol-4-yl]-pyridin-2-ylamine]
MET (human)
  IC50: 100 to 1000 nM
RON (human)
  IC50: 100 to 1000 nM

## Cn1cc(-c2cnc(N)c(-c3cc4c(Cl)ccc(F)c4cn3)c2)cn1 [Example 65, 3-(5-Chloro-8-fluoroisoquinolin-3-yl)-5-(1-methyl-1H-pyrazol-4-yl)-pyridin-2-ylamine bis-hydrochloride]
MET (human)
  IC50: 1000 to 20000 nM
RON (human)
  IC50: 1000 to 20000 nM

## CC(C)n1cc(-c2cnc(N)c(-c3cc4c(Cl)ccc(F)c4cn3)c2)cn1 [Example 66, 3-(5-Chloro-8-fluoroisoquinolin-3-yl)-5-(1-isopropyl-1H-pyrazol-4-yl)-pyridin-2-ylamine bis-hydrochloride]
MET (human)
  IC50: 1000 to 20000 nM
RON (human)
  IC50: 1000 to 20000 nM

## CN(C)C(=O)N1CCC(n2cc(-c3cnc(N)c(-c4cc5c(Cl)ccc(F)c5cn4)c3)cn2)CC1 [Example 67, 4-4-[6-Amino-5-(5-chloro-8-fluoroisoquinolin-3-yl)-pyridin-3-yl]-pyrazol-1-ylpiperidine-1-carboxylic acid dimethylamide bis-hydrochloride]
MET (human)
  IC50: 100 to 1000 nM
RON (human)
  IC50: 100 to 1000 nM

## NC(=O)N1CCC(n2cc(-c3cnc(N)c(-c4cc5c(Cl)ccc(F)c5cn4)c3)cn2)CC1 [Example 68, 4-4-[6-Amino-5-(5-chloro-8-fluoroisoquinolin-3-yl)-pyridin-3-yl]-pyrazol-1-ylpiperidine-1-carboxamide bis-hydrochloride]
MET (human)
  IC50: 100 to 1000 nM
RON (human)
  IC50: 100 to 1000 nM

## Nc1ncc(-c2cnn(C3CCN(CC(F)(F)F)CC3)c2)cc1-c1cc2c(Cl)ccc(F)c2cn1 [Example 69, 3-(5-Chloro-8-fluoroisoquinolin-3-yl)-5-1-[1-(2,2,2-trifluoroethyl)-piperidin-4-yl]-1H-pyrazol-4-yl-pyridin-2-ylamine bis-hydrochloride]
MET (human)
  IC50: 1000 to 20000 nM
RON (human)
  IC50: 1000 to 20000 nM

## COCCN1CCC(n2cc(-c3cnc(N)c(-c4cc5c(Cl)ccc(F)c5cn4)c3)cn2)CC1 [Example 70, 3-(5-Chloro-8-fluoroisoquinolin-3-yl)-5-1-[1-(2-methoxyethyl)-piperidin-4-yl]-1H-pyrazol-4-yl-pyridin-2-ylamine]
MET (human)
  IC50: 100 to 1000 nM
RON (human)
  IC50: 1000 to 20000 nM

## CN(C)C(=O)[C@@H]1C[C@H](n2cc(-c3cnc(N)c(-c4cc5c(Cl)ccc(F)c5cn4)c3)cn2)CN1 [Example 71, (2S,4S)-4-{4-[6-Amino-5-(5-chloro-8-fluoroisoquinolin-3-yl)-pyridin-3-yl]-pyrazol-1-yl}-pyrrolidine-2-carboxylic acid dimethylamide]
MET (human)
  IC50: ≤ 100 nM
RON (human)
  IC50: 100 to 1000 nM

## Nc1ncc(-c2cnn([C@@H]3CN[C@H](C(=O)N4CCOCC4)C3)c2)cc1-c1cc2c(Cl)ccc(F)c2cn1 [Example 72, ((2S,4S)-4-{4-[6-Amino-5-(5-chloro-8-fluoroisoquinolin-3-yl)-pyridin-3-yl]-pyrazol-1-yl}-pyrrolidin-2-yl)-morpholin-4-ylmethanone]
MET (human)
  IC50: ≤ 100 nM
RON (human)
  IC50: 100 to 1000 nM

## Nc1ncc(-c2cnn([C@@H]3CN[C@H](C(=O)N4CCCC4)C3)c2)cc1-c1cc2c(Cl)ccc(F)c2cn1 [Example 73, ((2S,4S)-4-{4-[6-Amino-5-(5-chloro-8-fluoroisoquinolin-3-yl)-pyridin-3-yl]-pyrazol-1-yl}-pyrrolidin-2-yl)-pyrrolidin-1-ylmethanone]
MET (human)
  IC50: 100 to 1000 nM
RON (human)
  IC50: 100 to 1000 nM

## COCCNC(=O)[C@@H]1C[C@H](n2cc(-c3cnc(N)c(-c4cc5c(Cl)ccc(F)c5cn4)c3)cn2)CN1 [Example 74, (2S,4S)-4-{4-[6-Amino-5-(5-chloro-8-fluoroisoquinolin-3-yl)-pyridin-3-yl]-pyrazol-1-yl}-pyrrolidine-2-carboxylic acid (2-methoxyethyl)-amide]
MET (human)
  IC50: 1000 to 20000 nM
RON (human)
  IC50: 1000 to 20000 nM

## Nc1ncc(-c2ccsc2)cc1-c1cc2c(Cl)ccc(F)c2cn1 [Example 76, 3-(5-Chloro-8-fluoroisoquinolin-3-yl)-5-thiophen-3-ylpyridin-2-amine]
MET (human)
  IC50: > 20000 nM
RON (human)
  IC50: > 20000 nM

## Nc1ncc(-c2ccccc2)cc1-c1cc2c(Cl)ccc(F)c2cn1 [Example 77, 3-(5-Chloro-8-fluoroisoquinolin-3-yl)-5-phenylpyridin-2-amine]
MET (human)
  IC50: > 20000 nM
RON (human)
  IC50: > 20000 nM

## Nc1ncc(-c2cccnc2)cc1-c1cc2c(Cl)ccc(F)c2cn1 [Example 78, 5-(5-Chloro-8-fluoroisoquinolin-3-yl)-3,3′-bipyridin-6-amine]
MET (human)
  IC50: 1000 to 20000 nM
RON (human)
  IC50: 1000 to 20000 nM

## Nc1ncc(-c2ccncc2)cc1-c1cc2c(Cl)ccc(F)c2cn1 [Example 79, 5-(5-Chloro-8-fluoroisoquinolin-3-yl)-3,4′-bipyridin-6-amine]
MET (human)
  IC50: 1000 to 20000 nM
RON (human)
  IC50: 1000 to 20000 nM

## CC(C)(C)OC(=O)N1CC=C(c2cnc(N)c(-c3cc4c(Cl)ccc(F)c4cn3)c2)CC1 [Example 80]
MET (human)
  IC50: 1000 to 20000 nM
RON (human)
  IC50: 1000 to 20000 nM

## Nc1ccc(-c2cnc(N)c(-c3cc4c(Cl)ccc(F)c4cn3)c2)cn1 [Example 81, 5-(5-Chloro-8-fluoroisoquinolin-3-yl)-3,3′-bipyridine-6,6′-diamine]
MET (human)
  IC50: 1000 to 20000 nM
RON (human)
  IC50: 1000 to 20000 nM

## CC(=O)Nc1ccc(-c2cnc(N)c(-c3cc4c(Cl)ccc(F)c4cn3)c2)cc1 [Example 82, N-4-[6-Amino-5-(5-chloro-8-fluoroisoquinolin-3-yl)pyridin-3-yl]phenylacetamide]
MET (human)
  IC50: 1000 to 20000 nM
RON (human)
  IC50: > 20000 nM
